Experimental data published in patent US20240300958A1, “COMPOUNDS AND THE USES AND PHARMACEUTICAL COMPOSITIONS THEREOF” (BEIJING YOUZHUJU NETWORK TECHNOLOGY CO. LTD., priority 2023, published 2024).
Read-outs that look alike come from different tables or passages of the source.

Key:
Test in all cases: Kinase inhibition profile (HTRF / ADP Glo kinase assay)
Type in all cases: biochemical
JNK2 = JNK2 (Homo sapiens (Human), UniProt P45984)
Experimental: (§1) HTRF kinase assay: 2×ATP and substrate solution as well as 2× kinase and metal solution were prepared with assay buffer. 25 nL of compound was transferred to 384-well assay plate by Echo 655. After centrifugation, 2.5 μL of 2× kinase/metal ion solution was added to the 384-well assay plate followed by incubation at 25° C. for 10 min. 2.5 μL of 2× substrate and ATP solution was added to the wells followed by incubation at 25° C. for 60 min. 2× XL665 and antibody solution was prepared with assay buffer. 5 μL of kinase detection reagent was added to the wells followed by incubation at 25° C. for 60 min. Fluorescence signals at 620 nm (Cryptate) and 665 nm (XL665) were read with a microtiter plate reader. ADP Glo kinase assay: 2×ATP and substrate solution as well as 2× kinase and metal solution were prepared with assay buffer. 20 nL of compound was transferred to 384-well assay plate by Echo 655. 2 μL of 2× kinase/metal ion solution was added followed by incubation at 25° C. for 10 min in the 384-well assay plate. 2 μL of 2× substrate and ATP solution was added to the wells followed by incubation at 25° C. for 60 min. 4 μL of ADP Glo reagent was added to the wells followed by incubation at 25° C. for 40 min. 8 μL of kinase test reagent was added to the wells followed by incubation at 25° C. for 40 min. The luminescence signals were recorded on a microtiter plate reader. Data analysis: the reaction control (0.5% DMSO) reading was set to 0% inhibition, and the background (10 μM positive control) reading was set to 100% inhibition, then the percent inhibition for each test solution was calculated and the results are shown in Table 2 and FIG. 3.

MAP2K1 = MAP2K1 (Homo sapiens (Human), UniProt Q02750)
Experimental: as §1

DAPK1 = DAPK1 (Homo sapiens (Human), UniProt P53355)
Experimental: as §1

BRAF = BRAF (Homo sapiens (Human), UniProt P15056)
Experimental: as §1

MAPKAPK2 = MAPKAPK2 (Homo sapiens (Human), UniProt P49137)
Experimental: as §1

HIPK1 = HIPK1 (Homo sapiens (Human), UniProt Q86Z02)
Experimental: as §1

HGK = HGK (Homo sapiens (Human), UniProt O95819)
Experimental: as §1

AMPKαl/β1/γ1 = AMPKαl/β1/γ1 (Homo sapiens (Human), UniProt Q13131)
Experimental: as §1

PKCα = PKCα (Homo sapiens (Human), UniProt P17252)
Experimental: as §1

IKKα = IKKα (Homo sapiens (Human), UniProt O15111)
Experimental: as §1

CK1γ3 = CK1γ3 (Homo sapiens (Human), UniProt Q9Y6M4)
Experimental: as §1

MET = MET (Homo sapiens (Human), UniProt P08581)
Experimental: as §1

EPHB4 = EPHB4 (Homo sapiens (Human), UniProt P54760)
Experimental: as §1

DCAMKL2 = DCAMKL2 (Homo sapiens (Human), UniProt Q8N568)
Experimental: as §1

ABL1 = ABL1 (Homo sapiens (Human), UniProt P00519)
Experimental: as §1

NEK1 = NEK1 (Homo sapiens (Human), UniProt Q96PY6)
Experimental: as §1

CDK1/CycE1 = CDK1/CycE1 (Homo sapiens (Human), UniProt P06493)
Experimental: as §1

FGFR1 = FGFR1 (Homo sapiens (Human), UniProt P11362)
Experimental: as §1

CHK2 = CHK2 (Homo sapiens (Human), UniProt O96017)
Experimental: as §1

TIE2 = TIE2 (Homo sapiens (Human), UniProt Q02763)
Experimental: as §1

LCK = LCK (Homo sapiens (Human), UniProt P06239)
Experimental: as §1

JAK3 = JAK3 (Homo sapiens (Human), UniProt P52333)
Experimental: as §1

[1] = 1 uM Compound C1, read-out: % Inhibition (First measurement)
[2] = 1 uM Compound C1, read-out: % Inhibition (Second measurement)
[3] = 1 uM Compound C1, read-out: Average inhibition (%)

Sequence of DAPK1 (P53355 whole entry, species assumed): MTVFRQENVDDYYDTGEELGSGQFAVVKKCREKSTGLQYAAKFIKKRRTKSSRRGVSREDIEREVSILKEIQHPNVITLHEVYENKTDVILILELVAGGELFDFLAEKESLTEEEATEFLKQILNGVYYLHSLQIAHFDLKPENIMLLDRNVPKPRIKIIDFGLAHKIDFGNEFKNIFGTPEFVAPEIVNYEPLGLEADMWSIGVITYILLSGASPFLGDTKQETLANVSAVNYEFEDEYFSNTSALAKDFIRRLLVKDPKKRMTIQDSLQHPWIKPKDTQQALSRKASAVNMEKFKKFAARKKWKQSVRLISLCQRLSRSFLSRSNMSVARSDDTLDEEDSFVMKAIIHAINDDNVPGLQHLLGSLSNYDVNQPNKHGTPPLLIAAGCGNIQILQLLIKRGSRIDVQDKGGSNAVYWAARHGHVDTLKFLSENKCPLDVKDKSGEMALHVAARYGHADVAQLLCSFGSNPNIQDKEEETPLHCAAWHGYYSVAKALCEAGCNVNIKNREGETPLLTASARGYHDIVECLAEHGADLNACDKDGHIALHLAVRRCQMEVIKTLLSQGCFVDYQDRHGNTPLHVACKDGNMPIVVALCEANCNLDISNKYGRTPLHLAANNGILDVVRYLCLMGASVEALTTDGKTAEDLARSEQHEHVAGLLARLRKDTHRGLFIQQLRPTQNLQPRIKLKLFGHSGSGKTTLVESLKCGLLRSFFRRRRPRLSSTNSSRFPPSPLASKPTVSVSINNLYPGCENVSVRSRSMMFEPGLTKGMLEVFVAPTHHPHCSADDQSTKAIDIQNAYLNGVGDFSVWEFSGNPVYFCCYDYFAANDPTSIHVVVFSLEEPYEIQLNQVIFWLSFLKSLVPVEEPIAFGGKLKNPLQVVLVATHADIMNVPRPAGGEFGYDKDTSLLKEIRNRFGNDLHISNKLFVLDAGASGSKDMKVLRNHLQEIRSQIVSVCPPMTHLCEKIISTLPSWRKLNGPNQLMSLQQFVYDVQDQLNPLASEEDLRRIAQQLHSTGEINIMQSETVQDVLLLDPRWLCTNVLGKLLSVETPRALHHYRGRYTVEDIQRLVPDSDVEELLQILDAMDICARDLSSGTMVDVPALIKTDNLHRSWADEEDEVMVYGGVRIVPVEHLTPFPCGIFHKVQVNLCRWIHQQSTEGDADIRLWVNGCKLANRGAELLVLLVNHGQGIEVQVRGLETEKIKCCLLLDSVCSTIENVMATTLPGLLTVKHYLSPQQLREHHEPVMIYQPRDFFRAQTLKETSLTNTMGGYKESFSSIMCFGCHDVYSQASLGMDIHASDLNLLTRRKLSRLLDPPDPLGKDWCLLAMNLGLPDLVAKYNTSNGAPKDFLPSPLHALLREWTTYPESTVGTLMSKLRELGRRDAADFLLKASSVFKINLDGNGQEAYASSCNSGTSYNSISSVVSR
Sequence of EPHB4 (P54760 16-987, species assumed): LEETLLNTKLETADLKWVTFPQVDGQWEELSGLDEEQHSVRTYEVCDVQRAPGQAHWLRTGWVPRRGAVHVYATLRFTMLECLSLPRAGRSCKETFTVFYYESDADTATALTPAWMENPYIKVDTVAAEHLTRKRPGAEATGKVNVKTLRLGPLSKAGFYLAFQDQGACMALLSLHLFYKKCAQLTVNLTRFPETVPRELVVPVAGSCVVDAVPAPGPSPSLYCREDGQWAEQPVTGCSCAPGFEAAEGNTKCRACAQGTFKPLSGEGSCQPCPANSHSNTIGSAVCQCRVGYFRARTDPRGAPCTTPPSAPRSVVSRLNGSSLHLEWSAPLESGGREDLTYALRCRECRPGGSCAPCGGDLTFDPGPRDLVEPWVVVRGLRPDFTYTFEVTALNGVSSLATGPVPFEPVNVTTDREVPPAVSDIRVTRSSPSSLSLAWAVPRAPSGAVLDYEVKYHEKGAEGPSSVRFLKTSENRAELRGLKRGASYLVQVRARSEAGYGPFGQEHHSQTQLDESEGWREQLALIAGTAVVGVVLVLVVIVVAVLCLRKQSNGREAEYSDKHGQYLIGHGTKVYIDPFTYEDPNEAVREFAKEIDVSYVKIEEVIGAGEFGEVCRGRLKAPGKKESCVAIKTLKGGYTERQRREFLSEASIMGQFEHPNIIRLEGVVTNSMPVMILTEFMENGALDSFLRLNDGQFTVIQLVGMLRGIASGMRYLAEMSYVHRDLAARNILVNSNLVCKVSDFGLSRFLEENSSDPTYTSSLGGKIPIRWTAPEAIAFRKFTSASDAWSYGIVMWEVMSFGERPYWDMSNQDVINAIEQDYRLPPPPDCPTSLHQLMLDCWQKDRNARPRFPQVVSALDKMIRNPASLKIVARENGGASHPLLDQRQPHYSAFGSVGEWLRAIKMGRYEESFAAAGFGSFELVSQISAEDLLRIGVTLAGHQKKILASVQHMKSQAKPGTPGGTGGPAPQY
Sequence of AMPKαl/β1/γ1 (Q13131 whole entry): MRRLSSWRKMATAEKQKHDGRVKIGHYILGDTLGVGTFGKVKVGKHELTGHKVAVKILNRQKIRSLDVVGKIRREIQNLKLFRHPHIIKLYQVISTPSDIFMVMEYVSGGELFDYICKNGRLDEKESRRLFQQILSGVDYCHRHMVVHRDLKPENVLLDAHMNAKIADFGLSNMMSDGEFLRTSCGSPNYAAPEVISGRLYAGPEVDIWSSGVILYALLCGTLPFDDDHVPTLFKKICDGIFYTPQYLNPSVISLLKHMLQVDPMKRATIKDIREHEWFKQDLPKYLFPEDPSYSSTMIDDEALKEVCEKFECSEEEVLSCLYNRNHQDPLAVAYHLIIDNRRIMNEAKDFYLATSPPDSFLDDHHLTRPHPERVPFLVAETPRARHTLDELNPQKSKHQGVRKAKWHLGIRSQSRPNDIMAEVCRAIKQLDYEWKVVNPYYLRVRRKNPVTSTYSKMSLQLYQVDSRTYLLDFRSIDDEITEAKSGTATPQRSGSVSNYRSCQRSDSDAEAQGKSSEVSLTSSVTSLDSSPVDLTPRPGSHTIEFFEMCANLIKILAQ
Sequence of AMPKαl/β1/γ1 (Q9Y478 whole entry partner): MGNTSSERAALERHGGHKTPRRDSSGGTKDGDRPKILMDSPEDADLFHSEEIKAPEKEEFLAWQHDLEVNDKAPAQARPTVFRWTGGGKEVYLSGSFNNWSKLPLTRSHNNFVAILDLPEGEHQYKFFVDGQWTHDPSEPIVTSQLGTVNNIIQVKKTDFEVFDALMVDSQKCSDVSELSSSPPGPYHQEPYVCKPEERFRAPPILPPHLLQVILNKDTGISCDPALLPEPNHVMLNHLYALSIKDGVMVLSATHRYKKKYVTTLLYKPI
Sequence of AMPKαl/β1/γ1 (P54619 whole entry partner): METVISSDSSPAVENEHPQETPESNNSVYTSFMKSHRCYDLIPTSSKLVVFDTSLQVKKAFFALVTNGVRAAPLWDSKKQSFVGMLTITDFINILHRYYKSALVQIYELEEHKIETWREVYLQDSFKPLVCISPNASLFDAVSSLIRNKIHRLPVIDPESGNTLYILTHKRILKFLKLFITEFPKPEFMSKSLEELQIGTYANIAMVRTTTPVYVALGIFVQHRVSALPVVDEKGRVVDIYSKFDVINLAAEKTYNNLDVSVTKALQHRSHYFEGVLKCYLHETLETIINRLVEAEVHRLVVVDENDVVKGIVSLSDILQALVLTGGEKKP
Sequence of JNK2 (P45984 whole entry, species assumed): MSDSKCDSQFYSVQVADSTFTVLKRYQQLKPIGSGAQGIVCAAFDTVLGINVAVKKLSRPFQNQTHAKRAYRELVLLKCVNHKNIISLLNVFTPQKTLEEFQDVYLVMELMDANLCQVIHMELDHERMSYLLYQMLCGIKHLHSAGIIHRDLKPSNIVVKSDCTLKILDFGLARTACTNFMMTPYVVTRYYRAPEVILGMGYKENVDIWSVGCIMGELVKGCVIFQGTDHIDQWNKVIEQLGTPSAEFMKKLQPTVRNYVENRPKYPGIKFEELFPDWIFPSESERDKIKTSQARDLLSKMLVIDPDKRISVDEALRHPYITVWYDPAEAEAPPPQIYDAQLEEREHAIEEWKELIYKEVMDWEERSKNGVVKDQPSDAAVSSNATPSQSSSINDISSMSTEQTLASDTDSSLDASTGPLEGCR
Sequence of IKKα (O15111 whole entry, species assumed): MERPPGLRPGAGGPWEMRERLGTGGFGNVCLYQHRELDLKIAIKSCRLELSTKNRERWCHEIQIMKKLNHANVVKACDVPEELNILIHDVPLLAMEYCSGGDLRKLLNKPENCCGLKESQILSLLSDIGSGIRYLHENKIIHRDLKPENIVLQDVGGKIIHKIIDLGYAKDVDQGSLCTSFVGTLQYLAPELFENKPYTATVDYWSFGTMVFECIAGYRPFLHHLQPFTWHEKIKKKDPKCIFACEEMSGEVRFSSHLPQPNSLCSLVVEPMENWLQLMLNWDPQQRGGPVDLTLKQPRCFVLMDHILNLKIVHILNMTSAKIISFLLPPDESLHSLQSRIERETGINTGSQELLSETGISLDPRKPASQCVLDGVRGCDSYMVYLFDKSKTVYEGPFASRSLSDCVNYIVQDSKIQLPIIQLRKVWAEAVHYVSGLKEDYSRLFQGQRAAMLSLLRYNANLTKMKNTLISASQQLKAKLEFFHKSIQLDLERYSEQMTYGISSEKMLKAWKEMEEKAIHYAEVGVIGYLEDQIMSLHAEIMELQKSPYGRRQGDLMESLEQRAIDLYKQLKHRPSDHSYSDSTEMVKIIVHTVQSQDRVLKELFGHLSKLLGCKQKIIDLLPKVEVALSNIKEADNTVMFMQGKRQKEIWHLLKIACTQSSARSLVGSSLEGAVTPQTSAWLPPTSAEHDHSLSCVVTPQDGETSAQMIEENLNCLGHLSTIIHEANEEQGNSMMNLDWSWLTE

Compound Cc1ccc(C(=O)Nc2ccccn2)cc1C#Cc1cnc2cc(C3=CCCCC3)cnn12 [Compound C1, 3-{2-[7-(cyclohex-1-en-1-yl)imidazo[1,2-b]pyridazin-3-yl]ethynyl}-4-methyl-N-(pyridin-2-yl)benzamide] has an inhibition at 1 µM (JNK2; [1]) of 9.39%, an inhibition at 1 µM (JNK2; [2]) of 9.07% and an inhibition at 1 µM (JNK2; [3]) of 9.23%. For the same compound, the inhibition at 1 µM (MAP2K1; [1]) was -5.72%, the inhibition at 1 µM (MAP2K1; [2]) was -3.53% and the inhibition at 1 µM (MAP2K1; [3]) was -4.62%. It also gave an inhibition at 1 µM (DAPK1; [1]) of -14.5%, an inhibition at 1 µM (DAPK1; [2]) of -5.25% and an inhibition at 1 µM (DAPK1; [3]) of -9.87%. It also gave an inhibition at 1 µM (BRAF; [1]) of -6.73%, an inhibition at 1 µM (BRAF; [2]) of -23.9% and an inhibition at 1 µM (BRAF; [3]) of -15.3%. For the same compound, the inhibition at 1 µM (MAPKAPK2; [1]) was 15.3%, the inhibition at 1 µM (MAPKAPK2; [2]) was -3.28% and the inhibition at 1 µM (MAPKAPK2; [3]) was 6.02%. It also gave an inhibition at 1 µM (HIPK1; [1]) of 6.91%, an inhibition at 1 µM (HIPK1; [2]) of 4.17% and an inhibition at 1 µM (HIPK1; [3]) of 5.54%. It also gave an inhibition at 1 µM (HGK; [1]) of 18.5%, an inhibition at 1 µM (HGK; [2]) of 17% and an inhibition at 1 µM (HGK; [3]) of 17.7%. The inhibition at 1 µM (AMPKαl/β1/γ1; [1]) was 2.13%, the inhibition at 1 µM (AMPKαl/β1/γ1; [2]) was -1.96% and the inhibition at 1 µM (AMPKαl/β1/γ1; [3]) was 0.09%. The inhibition at 1 µM (PKCα; [1]) was -1.67%, the inhibition at 1 µM (PKCα; [2]) was -17.2% and the inhibition at 1 µM (PKCα; [3]) was -9.44%. The inhibition at 1 µM (IKKα; [1]) was -18%, the inhibition at 1 µM (IKKα; [2]) was -12.9% and the inhibition at 1 µM (IKKα; [3]) was -15.5%. It also gave an inhibition at 1 µM (CK1γ3; [1]) of -7.05%, an inhibition at 1 µM (CK1γ3; [2]) of 1.91% and an inhibition at 1 µM (CK1γ3; [3]) of -2.57%. For the same compound, the inhibition at 1 µM (MET; [1]) was -11.9%, the inhibition at 1 µM (MET; [2]) was -15.8% and the inhibition at 1 µM (MET; [3]) was -13.9%. The inhibition at 1 µM (EPHB4; [1]) was 3.8%, the inhibition at 1 µM (EPHB4; [2]) was -8.27% and the inhibition at 1 µM (EPHB4; [3]) was -2.24%. The inhibition at 1 µM (DCAMKL2; [1]) was -8.91%, the inhibition at 1 µM (DCAMKL2; [2]) was -8.39% and the inhibition at 1 µM (DCAMKL2; [3]) was -8.65%. For the same compound, the inhibition at 1 µM (ABL1; [1]) was 43.2%, the inhibition at 1 µM (ABL1; [2]) was 50.7% and the inhibition at 1 µM (ABL1; [3]) was 47%. For the same compound, the inhibition at 1 µM (NEK1; [1]) was 14.6%, the inhibition at 1 µM (NEK1; [2]) was 8.97% and the inhibition at 1 µM (NEK1; [3]) was 11.8%. It also gave an inhibition at 1 µM (CDK1/CycE1; [1]) of 11.9%, an inhibition at 1 µM (CDK1/CycE1; [2]) of 20.1% and an inhibition at 1 µM (CDK1/CycE1; [3]) of 16%. For the same compound, the inhibition at 1 µM (FGFR1; [1]) was 0.18%, the inhibition at 1 µM (FGFR1; [2]) was -18.2% and the inhibition at 1 µM (FGFR1; [3]) was -9.02%. For the same compound, the inhibition at 1 µM (CHK2; [1]) was 0.35%, the inhibition at 1 µM (CHK2; [2]) was 7.34% and the inhibition at 1 µM (CHK2; [3]) was 3.85%. For the same compound, the inhibition at 1 µM (TIE2; [1]) was -5.65%, the inhibition at 1 µM (TIE2; [2]) was 6.2% and the inhibition at 1 µM (TIE2; [3]) was 0.28%. It also gave an inhibition at 1 µM (LCK; [1]) of 7.39%, an inhibition at 1 µM (LCK; [2]) of -6.87% and an inhibition at 1 µM (LCK; [3]) of 0.26%. It also gave an inhibition at 1 µM (JAK3; [1]) of -1.28%, an inhibition at 1 µM (JAK3; [2]) of 2.46% and an inhibition at 1 µM (JAK3; [3]) of 0.59%.
